Measurements reported in patent US20250059193A1, “POLYMORPHIC AND SALT FORMS OF (1S,3S)-N1-(5-(PENTAN-3-YL)PYRAZOLO[1,5-A]PYRIMIDIN-7-YL) CYCLOPENTANE-1,3-DIAMINE” (Kronos Bio, Inc., priority 2021, published 2025).
Where a name gives a salt, the structure may show the parent alone.

Legend:
Format in all cases: physicochemical
[1] = Solubility of free base and salt forms; details: for solubility at 24 h: thermodynamic from solid; for solubility compared with the free base: physiological conditions, salt forms versus free base
Description: (§1) FaSSGF is Fasted State Simulated Gastric Fluid. Solubility is reported in mg/mL.

[2] = pH of the solubility samples
Procedure: The pH was recorded with a Metrohm 913 PH meter, equipped with a WTW SenTix® MIC-B electrode.
as §1

[3] = Accelerated aging conditions (AAC; 40° C./75% RH), solids reanalyzed by XRPD; details: solid form by XRPD
Procedure: (§2) Next, the resulting solids were combined with another solvent (acetonitrile (AcN) or ethanol) and the resulting mixtures were stirred at room temperature (RT). After stirring, the solids were isolated by centrifugation and part of the solids was harvested on a 96-well plate and dried under ambient conditions. The remaining part of the solids was dried under vacuum (5 mbar [i.e. 500 Pa], RT, 18 h). All solids were analyzed by XRPD, subjected to accelerated aging conditions (AAC; 40° C./75% RH) and reanalyzed by XRPD. The procedure and resulting tosylate forms are shown in the table below, wherein forms were identified by XRD.
as §2, with “chloroform)” for “ethanol)”, “mbar,” for “mbar [i.e. 500 Pa],”, “AAC (accelerated” for “accelerated”, “conditions;” for “conditions (AAC;”, “XRPD.” for “XRPD. The procedure and resulting tosylate forms are shown in the table below, wherein forms were identified by XRD.”
(§3) Next, the resulting solids were combined with another solvent (AcN, diethyl ether, or toluene), and the resulting mixtures were stirred at room temperature (RT). After stirring, the solids were isolated by centrifugation and part of the solids was harvested on a 96-well plate and dried under ambient conditions. The remaining part of the solids was dried under vacuum (5 mbar, RT, 18 h). All solids were analyzed by XRPD, subjected to AAC (40° C./75% RH) and reanalyzed by XRPD.
as §3, with “(1,4-dioxane, acetonitrile, ethyl acetate),” for “(AcN, diethyl ether, or toluene),”
as §3, with “(acetonitrile or” for “(AcN,”, “ether),” for “ether, or toluene),”

[4] = Repeat XRD of amorphous free base from slow evaporation of ethanol solution; details: product of slow evaporation of ethanol solution of form I
Procedure: Initial attempts to generate an amorphous form of the free base were conducted by slow evaporation of a form I solution. In particular, form I was dissolved in ethanol according to the chart below and then allowed to slowly evaporate.

[5] = Medium 100 mM phosphate, pH Buffer 6.8

Structure (SMILES)	Solubility (2 h) [1, 5] [mg/mL]	Solubility (24 h) [1, 5] [mg/mL]	Solubility (2 h) ([1]; Medium FaSSGF, pH Buffer 1.6) [mg/mL]	Solubility (24 h) ([1]; Medium FaSSGF, pH Buffer 1.6) [mg/mL]	solubility compared with the free base [1]	pH (30 min) [2, 5]	pH (2 h) [2, 5]	pH (24 h) [2, 5]	pH (30 min) ([2]; Medium FaSSGF, pH Buffer 1.6)	pH (2 h) ([2]; Medium FaSSGF, pH Buffer 1.6)	pH (24 h) ([2]; Medium FaSSGF, pH Buffer 1.6)	3 days AAC (XRPD form) [3]	also measured
CCC(CC)c1cc(N[C@H]2CC[C@H](N)C2)n2nccc2n1 [Free base I, (1S,3S)—N^1—(5-(pentan-3-yl)pyrazolo[1,5-α]pyrimidin-7-yl)cyclopentane-1,3-diamine]													solubility at 24 h ([1]; 50 mM phosphate buffer, pH 1.6, aqueous buffer, Medium 50 mM phosphate, pH Buffer 1.6 as printed): 9.8 mg/mL; solubility at 24 h ([1]; FaSSGF (Fasted State Simulated Gastric Fluid), pH 7.4, fassgf or other biorelevant, Medium FaSSGF, pH Buffer 7.4 as printed): 5.9 mg/mL; solubility ([1]; water): 5.9 mg/mL; solubility at 24 h ([1]; water, Medium Water): 5.1 mg/mL; pH (24 h) ([2]; Medium 50 mM phosphate, pH Buffer 1.6 as printed): 9.4; pH (24 h) ([2]; Medium FaSSGF, pH Buffer 7.4 as printed): 10.2; pH (24 h) ([2]; Medium Water): 10.1
CCC(CC)c1cc(N[C@H]2CC[C@H](N)C2)n2nccc2n1 [Tosylate III]	8.7	2.92	>129	>129	increased	2.7	6.8	7.0	1.0	1.9	2.1		
CCC(CC)c1cc(N[C@H]2CC[C@H](N)C2)n2nccc2n1 [Fumarate IV]												Form III	
CCC(CC)c1cc(N[C@H]2CC[C@H](N)C2)n2nccc2n1 [Fumarate III]	>107	>107	>48	>48	increased	4.5	7.2	7.3	4.1	1.6	1.7		
CCC(CC)c1cc(N[C@H]2CC[C@H](N)C2)n2nccc2n1 [Oxalate II]												Form II	5 days AAC (XRPD form) [3]: Form II
CCC(CC)c1cc(N[C@H]2CC[C@H](N)C2)n2nccc2n1 [Citrate I]	>137	>137	>127	>127	increased	4.5	6.7	6.7	4.4	1.6	1.6		
CCC(CC)c1cc(N[C@H]2CC[C@H](N)C2)n2nccc2n1 [Fumarate II]												Form III	
CCC(CC)c1cc(N[C@H]2CC[C@H](N)C2)n2nccc2n1 [Tosylate amorphous]												Form II	5 days AAC (XRPD form) [3]: Form II
CCC(CC)c1cc(N[C@H]2CC[C@H](N)C2)n2nccc2n1 [Oxalate III]	55.5	38.1	>392	>392	increased	2.1	6.7	6.8	1.6	1.6	1.5		
CCC(CC)c1cc(N[C@H]2CC[C@H](N)C2)n2nccc2n1 [Camsylate II]	28.9	42.2	>380	>380	increased	4.1	7.4	7.5	1.6	1.7	1.7	Form II	5 days AAC (XRPD form) [3]: Form III
CCC(CC)c1cc(N[C@H]2CC[C@H](N)C2)n2nccc2n1 [amorphous product]													XRD of amorphous product after about 45 minutes [4]: began crystalizing
CCC(CC)c1cc(N[C@H]2CC[C@H](N)C2)n2nccc2n1 [fumarate salt]												Form III	
